For two compounds, Residual activity results are on record in paper PMC9030254, “Target Hopping from Protein Kinases to PXR: Identification of Small-Molecule Protein Kinase Inhibitors as Selective Modulators of Pregnane X Receptor from TüKIC Library” (Cells, 2022).

Common to all, as to experiment: Kinase profiling
What all share (type): biochemical

Experiment [1] deals with T1, S6K (Homo sapiens, UniProt P23443).
T1 construct: purchased ProQinase (Freiburg, Germany)
The protocol:
(§1) The analysis was performed by ProQinase (Freiburg, Germany).

For experiment [2], the target named is T2, MST4 (Homo sapiens, UniProt Q9P289).
T2 construct: purchased ProQinase (Freiburg, Germany)
How it is done:
as §1

Experiment [3] deals with T3, MARK4 (Homo sapiens, UniProt Q96L34).
T3 construct: purchased ProQinase (Freiburg, Germany)
T3 sequence (Q96L34 1-752): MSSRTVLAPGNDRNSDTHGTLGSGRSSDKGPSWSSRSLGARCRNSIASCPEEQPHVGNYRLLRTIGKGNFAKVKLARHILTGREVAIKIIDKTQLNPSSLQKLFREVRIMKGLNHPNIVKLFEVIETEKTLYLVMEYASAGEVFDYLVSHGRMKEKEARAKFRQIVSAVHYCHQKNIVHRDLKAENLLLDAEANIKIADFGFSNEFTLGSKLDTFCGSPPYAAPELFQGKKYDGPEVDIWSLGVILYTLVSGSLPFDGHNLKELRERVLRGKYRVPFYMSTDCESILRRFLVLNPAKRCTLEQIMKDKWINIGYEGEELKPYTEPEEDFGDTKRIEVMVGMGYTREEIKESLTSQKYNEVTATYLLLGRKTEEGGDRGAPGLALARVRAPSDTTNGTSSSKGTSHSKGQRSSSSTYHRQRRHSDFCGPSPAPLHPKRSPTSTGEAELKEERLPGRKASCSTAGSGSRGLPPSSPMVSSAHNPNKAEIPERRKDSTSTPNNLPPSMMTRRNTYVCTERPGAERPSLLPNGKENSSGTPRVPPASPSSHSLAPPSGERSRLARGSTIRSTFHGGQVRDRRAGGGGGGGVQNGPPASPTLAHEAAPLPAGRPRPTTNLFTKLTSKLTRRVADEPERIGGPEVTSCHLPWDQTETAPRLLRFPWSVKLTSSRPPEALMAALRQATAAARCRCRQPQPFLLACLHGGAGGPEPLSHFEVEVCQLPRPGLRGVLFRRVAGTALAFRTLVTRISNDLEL
The protocol:
as §1

For experiment [4], the target named is T4, ABL2 (Homo sapiens, UniProt P42684).
T4 construct: purchased ProQinase (Freiburg, Germany)
How it is done: as §1

The target in experiment [5] is T5, NEK3 (Homo sapiens, UniProt P51956).
T5 construct: purchased ProQinase (Freiburg, Germany)
T5 sequence (P51956 1-506): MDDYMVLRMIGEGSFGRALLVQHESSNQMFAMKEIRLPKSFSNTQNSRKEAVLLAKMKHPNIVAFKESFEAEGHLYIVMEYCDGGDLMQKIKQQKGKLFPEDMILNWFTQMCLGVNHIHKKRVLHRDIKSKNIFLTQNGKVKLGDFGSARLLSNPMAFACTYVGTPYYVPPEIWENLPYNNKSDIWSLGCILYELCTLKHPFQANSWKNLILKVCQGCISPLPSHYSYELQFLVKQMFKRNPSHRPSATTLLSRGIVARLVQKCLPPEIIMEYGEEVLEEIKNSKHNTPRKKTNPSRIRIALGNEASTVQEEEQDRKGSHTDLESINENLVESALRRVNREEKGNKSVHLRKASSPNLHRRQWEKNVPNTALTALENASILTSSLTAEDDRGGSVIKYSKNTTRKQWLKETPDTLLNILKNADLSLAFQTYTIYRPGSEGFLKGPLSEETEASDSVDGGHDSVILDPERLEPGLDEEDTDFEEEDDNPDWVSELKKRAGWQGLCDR
The protocol:
as §1

The target of experiment [6] is T6, ACVRL1 (Homo sapiens, UniProt P37023).
T6 construct: purchased ProQinase (Freiburg, Germany)
How it is done: as §1

Experiment [7] concerns the target T7, PKMYT1 (Homo sapiens, UniProt Q99640).
T7 construct: purchased ProQinase (Freiburg, Germany)
T7 sequence (Q99640 1-499): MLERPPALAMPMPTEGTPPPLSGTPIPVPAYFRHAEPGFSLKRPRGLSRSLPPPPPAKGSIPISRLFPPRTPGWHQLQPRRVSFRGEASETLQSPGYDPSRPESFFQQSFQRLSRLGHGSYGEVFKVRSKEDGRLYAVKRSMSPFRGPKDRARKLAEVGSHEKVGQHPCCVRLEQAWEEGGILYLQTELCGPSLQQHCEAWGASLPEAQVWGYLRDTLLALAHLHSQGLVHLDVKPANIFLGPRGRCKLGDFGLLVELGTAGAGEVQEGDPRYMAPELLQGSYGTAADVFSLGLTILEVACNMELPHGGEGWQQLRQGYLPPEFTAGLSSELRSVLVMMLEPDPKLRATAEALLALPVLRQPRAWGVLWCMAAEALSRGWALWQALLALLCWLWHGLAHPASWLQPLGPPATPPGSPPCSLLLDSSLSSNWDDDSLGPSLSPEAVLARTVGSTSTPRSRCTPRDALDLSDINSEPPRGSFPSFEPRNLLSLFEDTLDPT
The protocol:
as §1

The target in experiment [8] is T8, PAK1 (Homo sapiens, UniProt Q13153).
T8 construct: purchased ProQinase (Freiburg, Germany)
How it is done: as §1

Experiment [9] has as its target T9, ROCK1 (Homo sapiens, UniProt Q13464).
T9 construct: purchased ProQinase (Freiburg, Germany)
The protocol: as §1

Experiment [10] has as its target T10, PHKG2 (Homo sapiens, UniProt P15735).
T10 construct: purchased ProQinase (Freiburg, Germany)
T10 sequence (P15735 1-406): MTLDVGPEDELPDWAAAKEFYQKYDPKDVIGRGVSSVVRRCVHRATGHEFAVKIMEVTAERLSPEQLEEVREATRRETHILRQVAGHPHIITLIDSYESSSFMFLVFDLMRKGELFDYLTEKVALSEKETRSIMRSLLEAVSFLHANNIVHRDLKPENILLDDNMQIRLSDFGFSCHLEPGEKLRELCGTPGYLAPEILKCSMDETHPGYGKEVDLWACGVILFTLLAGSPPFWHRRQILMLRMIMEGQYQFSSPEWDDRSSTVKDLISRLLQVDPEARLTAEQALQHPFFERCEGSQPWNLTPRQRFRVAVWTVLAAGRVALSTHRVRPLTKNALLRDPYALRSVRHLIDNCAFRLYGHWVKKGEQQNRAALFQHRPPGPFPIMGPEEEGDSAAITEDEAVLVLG
The protocol: as §1

The target in experiment [11] is T11, CDK1/CycE1 (Homo sapiens, UniProt P06493).
T11 construct: purchased ProQinase (Freiburg, Germany)
The protocol: as §1

Experiment [12] deals with T12, DAPK2 (Homo sapiens, UniProt Q9UIK4).
T12 construct: purchased ProQinase (Freiburg, Germany)
The protocol: as §1

T12 sequence (Q9UIK4 whole entry): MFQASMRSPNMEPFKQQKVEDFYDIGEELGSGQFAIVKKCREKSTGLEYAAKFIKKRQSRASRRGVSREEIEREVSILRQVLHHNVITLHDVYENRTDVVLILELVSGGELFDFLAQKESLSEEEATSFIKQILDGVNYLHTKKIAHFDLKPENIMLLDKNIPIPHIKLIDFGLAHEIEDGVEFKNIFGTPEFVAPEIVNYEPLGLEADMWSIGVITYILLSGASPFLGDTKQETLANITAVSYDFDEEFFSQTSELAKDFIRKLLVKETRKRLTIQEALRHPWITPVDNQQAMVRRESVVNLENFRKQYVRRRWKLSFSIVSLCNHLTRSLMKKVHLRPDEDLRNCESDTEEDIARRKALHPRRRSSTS
T1 sequence (P23443 whole entry): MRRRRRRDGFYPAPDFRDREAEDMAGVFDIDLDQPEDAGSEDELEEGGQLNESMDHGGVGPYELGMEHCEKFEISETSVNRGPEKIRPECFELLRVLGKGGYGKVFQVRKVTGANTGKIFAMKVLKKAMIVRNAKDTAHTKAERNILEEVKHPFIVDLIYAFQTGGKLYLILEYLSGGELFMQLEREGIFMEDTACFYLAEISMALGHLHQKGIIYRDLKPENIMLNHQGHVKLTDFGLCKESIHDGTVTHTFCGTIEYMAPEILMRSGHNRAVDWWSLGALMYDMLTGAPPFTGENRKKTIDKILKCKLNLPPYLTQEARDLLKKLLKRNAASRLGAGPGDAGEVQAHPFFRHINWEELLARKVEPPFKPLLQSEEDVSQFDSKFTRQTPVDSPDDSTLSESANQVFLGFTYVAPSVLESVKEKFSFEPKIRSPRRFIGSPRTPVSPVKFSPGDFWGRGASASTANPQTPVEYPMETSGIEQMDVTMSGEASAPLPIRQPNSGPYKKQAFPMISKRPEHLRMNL
T8 sequence (Q13153 whole entry): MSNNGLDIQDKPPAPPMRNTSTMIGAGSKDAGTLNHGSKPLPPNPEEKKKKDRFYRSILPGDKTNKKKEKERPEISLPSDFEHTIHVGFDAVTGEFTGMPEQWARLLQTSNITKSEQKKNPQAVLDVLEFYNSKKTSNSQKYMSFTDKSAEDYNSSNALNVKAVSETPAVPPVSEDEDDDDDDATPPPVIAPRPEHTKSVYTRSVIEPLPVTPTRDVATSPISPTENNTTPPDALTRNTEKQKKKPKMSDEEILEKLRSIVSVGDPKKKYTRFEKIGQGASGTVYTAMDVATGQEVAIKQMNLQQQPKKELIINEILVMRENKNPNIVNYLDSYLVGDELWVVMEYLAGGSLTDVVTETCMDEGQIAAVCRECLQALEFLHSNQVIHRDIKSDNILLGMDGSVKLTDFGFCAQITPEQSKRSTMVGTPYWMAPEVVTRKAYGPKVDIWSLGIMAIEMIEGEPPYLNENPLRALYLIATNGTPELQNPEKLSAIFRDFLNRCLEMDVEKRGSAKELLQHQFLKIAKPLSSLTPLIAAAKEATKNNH
T2 sequence (Q9P289 whole entry): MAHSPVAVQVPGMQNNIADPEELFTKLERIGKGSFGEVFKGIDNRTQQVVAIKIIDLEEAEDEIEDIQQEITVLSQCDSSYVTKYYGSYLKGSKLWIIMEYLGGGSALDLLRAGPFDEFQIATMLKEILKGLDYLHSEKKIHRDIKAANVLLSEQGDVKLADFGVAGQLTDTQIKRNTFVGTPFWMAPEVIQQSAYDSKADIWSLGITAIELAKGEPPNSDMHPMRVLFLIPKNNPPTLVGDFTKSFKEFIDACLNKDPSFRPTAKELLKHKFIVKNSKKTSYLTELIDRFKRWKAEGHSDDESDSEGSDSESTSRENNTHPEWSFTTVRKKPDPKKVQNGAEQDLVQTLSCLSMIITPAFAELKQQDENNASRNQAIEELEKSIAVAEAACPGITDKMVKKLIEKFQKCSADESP
T11 sequence (P06493 whole entry): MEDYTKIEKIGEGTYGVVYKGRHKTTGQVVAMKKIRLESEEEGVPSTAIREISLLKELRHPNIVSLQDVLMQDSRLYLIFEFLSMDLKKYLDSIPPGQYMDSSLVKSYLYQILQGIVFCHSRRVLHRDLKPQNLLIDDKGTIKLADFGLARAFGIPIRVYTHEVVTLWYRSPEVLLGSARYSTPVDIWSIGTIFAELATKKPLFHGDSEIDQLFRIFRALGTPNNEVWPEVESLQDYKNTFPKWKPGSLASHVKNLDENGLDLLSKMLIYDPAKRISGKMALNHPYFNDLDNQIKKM
T11 sequence (P24864 whole entry partner): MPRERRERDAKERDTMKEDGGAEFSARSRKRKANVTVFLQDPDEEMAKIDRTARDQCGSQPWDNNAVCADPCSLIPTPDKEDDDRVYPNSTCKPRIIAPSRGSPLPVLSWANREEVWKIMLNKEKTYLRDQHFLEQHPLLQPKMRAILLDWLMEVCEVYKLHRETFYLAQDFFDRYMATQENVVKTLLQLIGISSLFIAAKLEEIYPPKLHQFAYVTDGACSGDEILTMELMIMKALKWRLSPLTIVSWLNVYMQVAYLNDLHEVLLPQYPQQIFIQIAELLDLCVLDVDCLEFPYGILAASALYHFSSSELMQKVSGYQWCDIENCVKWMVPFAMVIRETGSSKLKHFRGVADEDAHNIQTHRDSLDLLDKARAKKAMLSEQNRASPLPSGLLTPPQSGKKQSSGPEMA
T9 sequence (Q13464 whole entry): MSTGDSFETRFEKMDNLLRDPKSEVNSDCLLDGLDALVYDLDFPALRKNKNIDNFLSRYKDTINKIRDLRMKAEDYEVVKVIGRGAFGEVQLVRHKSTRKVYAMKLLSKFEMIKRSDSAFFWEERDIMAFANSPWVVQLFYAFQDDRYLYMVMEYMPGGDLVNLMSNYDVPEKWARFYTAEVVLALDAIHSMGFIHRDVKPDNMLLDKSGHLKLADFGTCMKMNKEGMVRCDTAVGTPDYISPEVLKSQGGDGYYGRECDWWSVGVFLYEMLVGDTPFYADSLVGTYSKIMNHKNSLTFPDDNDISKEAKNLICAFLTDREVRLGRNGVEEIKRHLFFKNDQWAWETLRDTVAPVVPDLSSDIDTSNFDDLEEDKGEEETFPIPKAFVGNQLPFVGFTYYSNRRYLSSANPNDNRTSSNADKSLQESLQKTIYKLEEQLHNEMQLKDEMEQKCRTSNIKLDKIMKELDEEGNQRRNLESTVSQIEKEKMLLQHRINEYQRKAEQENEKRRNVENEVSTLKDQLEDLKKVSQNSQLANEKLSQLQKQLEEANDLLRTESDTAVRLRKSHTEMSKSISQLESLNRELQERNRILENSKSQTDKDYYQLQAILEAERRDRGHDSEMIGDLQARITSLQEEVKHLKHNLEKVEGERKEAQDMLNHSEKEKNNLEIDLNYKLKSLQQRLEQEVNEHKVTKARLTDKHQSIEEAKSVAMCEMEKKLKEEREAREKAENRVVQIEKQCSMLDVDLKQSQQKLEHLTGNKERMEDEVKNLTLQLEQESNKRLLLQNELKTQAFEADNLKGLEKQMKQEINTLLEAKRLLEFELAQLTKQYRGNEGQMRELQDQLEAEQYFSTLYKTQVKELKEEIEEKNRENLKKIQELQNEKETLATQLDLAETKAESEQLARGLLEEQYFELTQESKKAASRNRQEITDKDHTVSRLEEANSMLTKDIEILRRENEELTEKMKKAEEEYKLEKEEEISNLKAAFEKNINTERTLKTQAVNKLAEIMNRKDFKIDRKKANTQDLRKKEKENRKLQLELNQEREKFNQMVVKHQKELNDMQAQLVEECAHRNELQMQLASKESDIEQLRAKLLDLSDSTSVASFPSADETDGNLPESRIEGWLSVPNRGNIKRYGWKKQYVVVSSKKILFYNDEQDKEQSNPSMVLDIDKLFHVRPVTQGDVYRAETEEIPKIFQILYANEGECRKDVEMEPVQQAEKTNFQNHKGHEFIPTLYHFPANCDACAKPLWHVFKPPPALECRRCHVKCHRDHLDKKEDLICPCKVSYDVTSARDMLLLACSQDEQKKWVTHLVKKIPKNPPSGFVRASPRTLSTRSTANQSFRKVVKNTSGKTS
T6 sequence (P37023 22-503): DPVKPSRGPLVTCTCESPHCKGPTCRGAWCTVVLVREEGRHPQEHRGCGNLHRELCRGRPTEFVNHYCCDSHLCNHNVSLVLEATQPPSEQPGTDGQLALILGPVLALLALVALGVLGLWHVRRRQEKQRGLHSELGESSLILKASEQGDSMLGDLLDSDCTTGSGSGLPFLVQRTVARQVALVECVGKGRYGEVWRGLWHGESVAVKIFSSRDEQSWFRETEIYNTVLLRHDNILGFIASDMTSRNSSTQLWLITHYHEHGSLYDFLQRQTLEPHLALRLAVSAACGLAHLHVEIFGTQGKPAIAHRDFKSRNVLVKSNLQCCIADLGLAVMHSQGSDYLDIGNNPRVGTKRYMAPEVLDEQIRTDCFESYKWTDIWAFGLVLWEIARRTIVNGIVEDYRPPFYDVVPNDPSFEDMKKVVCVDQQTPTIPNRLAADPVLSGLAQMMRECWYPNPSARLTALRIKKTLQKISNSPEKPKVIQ

In the case of `O=C(Nc1ccc(F)c(Nc2ccc3c(c2)CCCCC3=O)c1)c1cccc(F)c1` [Compound 109], the Residual activity in experiment [1] (1.0E-05 M) is on record as 91 % of control; in experiment [1] (1.0E-06 M), 88 % of control; in [2] (1.0E-05 M), 80 % of control; in experiment [2] (1.0E-06 M), 92 % of control; in experiment [3] (1.0E-05 M) it was 91 % of control; in [3] (1.0E-06 M), 102 % of control. The Residual activity is recorded as 92 % of control in experiment [4] (1.0E-05 M); 95 % of control in experiment [4] (1.0E-06 M); 97 % of control in experiment [5] (1.0E-05 M); 96 % of control in experiment [5] (1.0E-06 M); 109 % of control in [6] (1.0E-05 M); 94 % of control in experiment [6] (1.0E-06 M). For the same compound, the Residual activity in experiment [7] (1.0E-05 M) is on record as 95 % of control; in [7] (1.0E-06 M), 98 % of control; in experiment [8] (1.0E-05 M), 80 % of control; in [8] (1.0E-06 M), 84 % of control; in [9] (1.0E-05 M), 102 % of control; in experiment [9] (1.0E-06 M) it was 99 % of control. The Residual activity was 95 % of control in [10] (1.0E-05 M); 102 % of control in [10] (1.0E-06 M); 98 % of control in [11] (1.0E-05 M); 96 % of control in experiment [11] (1.0E-06 M); 133 % of control in experiment [12] (1.0E-05 M); 110 % of control in experiment [12] (1.0E-06 M).

As to `O=C(Cc1ccccc1)Nc1ccc(F)c(Nc2ccc3c(c2)CCCCC3=O)c1` [Compound 100], the Residual activity was 92 % of control in experiment [1] (1.0E-05 M); 102 % of control in [1] (1.0E-06 M); 82 % of control in [2] (1.0E-05 M); 90 % of control in [2] (1.0E-06 M); 94 % of control in experiment [3] (1.0E-05 M); 99 % of control in [3] (1.0E-06 M). Further, the Residual activity in experiment [4] (1.0E-05 M) is on record as 93 % of control; in experiment [4] (1.0E-06 M), 97 % of control; in experiment [5] (1.0E-05 M), 92 % of control; in experiment [5] (1.0E-06 M), 104 % of control; in [6] (1.0E-05 M) it was 100 % of control; in [6] (1.0E-06 M), 106 % of control. The Residual activity in experiment [7] (1.0E-05 M) is on record as 93 % of control; in [7] (1.0E-06 M), 102 % of control; in experiment [8] (1.0E-05 M) it was 88 % of control; in [8] (1.0E-06 M), 87 % of control; in experiment [9] (1.0E-05 M) it was 92 % of control; in experiment [9] (1.0E-06 M), 99 % of control. In addition, the Residual activity in experiment [10] (1.0E-05 M) is 93 % of control; in [10] (1.0E-06 M) it was 96 % of control; in [11] (1.0E-05 M), 100 % of control; in experiment [11] (1.0E-06 M), 102 % of control; in experiment [12] (1.0E-05 M), 124 % of control; in [12] (1.0E-06 M) it was 113 % of control.
